The text below walks through data of patent publication US5756423A, “Method of controlling plants by inhibition of farnesyl pyrophosphate synthase” (Zeneca Limited, priority 1997, dated 1998).

The IC50 is the concentration that inhibits the measured activity by half.

Assay [1] relates to green foxtail (Setaria viridis) (SETVI). Nature of the assay: post-emergent herbicidal test, green foxtail. The class given is in vivo. Conditions: Setaria viridis, post-emergence, read-out: SETVI percent control. An excerpt: (§1) Seeds of several different weed species were planted in sandy loam soil containing only trace organic matter. Propagules were sown in individuals rows using one species per row across the width of an aluminum flat (19.5×9.5×6 cm). The grass weeds planted were green foxtail (Setaria viridis) ("SETVI"), wild oat (Avena fatua) ("AVEFA"), barnyard grass (Enchinochloa crusgalli) ("ECHCG"). Broadleaf weeds utilized were wild mustard (Brassica kaber), also known as Sinapis arvensis, ("SINAR"), velvetleaf (Abutilon theophrasti) ("ABUTH") and morningglory (Ipomoea spp.) ("IPOSS"). Additionally, yellow nutsedge (Cyperus esculentus) ("CYPES"), nutlets were sown. Seeding depths ranged from 1.0 to 1.5 cm and plant densities ranged from 3 to 25 plants per row depending on individual plant species.
(§2) The flats were placed into a greenhouse and watered overhead by sprinkling. The greenhouse environmental systems provided the plants with natural and artificial (via metal halide lamps) lighting to attain 14 hours of light per day. Day and night temperatures were maintained at 29° and 21° C. respectively. The plants were grown for 10 to 12 days (or to the appropriate growth stage) prior to compound application. Grasses were sprayed at a 3 to 4 leaf stage and broadleaves at a 1 to 2 leaf stage. Yellow nutsedge was 5 to 7 cm tall at application.
(§3) Solutions of the test compounds were prepared by weighing out 18.8 and 74.7 mg for 1 and 4 kg/ha applications respectively, of the test compound into a 60 ml wide-mouth bottle, then dissolving the compound in 14.0 ml of deionized water containing 0.5% v/v Tween 20' (polyoxyethylene sorbitan monolaurate emulsifier) as a surfactant. Additional solvents, not exceeding 2 ml (15% of spray volume), were used if needed to dissolve the compound.
(§4) The plants were sprayed inside an enclosed linear spray table with the nozzle set at 30.5 cm (12 inches) above the foliage.
(§5) Treated plants were then returned to a greenhouse and watered daily without wetting the foliage.
(§6) The degree of weed control was evaluated 17-21 days after application and recorded as percentage of control as compared to the growth of the same species in an untreated control flat of the same. Percent control is the total injury to the plants due to all factors including: inhibited emergence, stunting, malformation, chlorosis and other types of plant injury. The control ratings range from 0 to 100 percent, where 0% represents no effect with growth equal to the untreated control and where 100% represents complete kill.

For assay [2], the system named is wild mustard (Brassica kaber), also known as Sinapis arvensis (SINAR). Nature of the assay: post-emergent herbicidal test, wild mustard. The class given is in vivo. The following applies: Brassica, post-emergence, read-out: SINAR percent control.
Description: as §1, §2, §3, §4, §5, §6

Assay [3] concerns wild oat (Avena fatua) (AVEFA). Nature of the assay: post-emergent herbicidal test, wild oat. The class given is in vivo. The following applies: Avena fatua, post-emergence, read-out: AVEFA percent control.
Description: as §1, §2, §3, §4, §5, §6

Assay [4] has as its system velvetleaf (Abutilon theophrasti) (ABUTH). As to the kind of experiment: post-emergent herbicidal test, velvetleaf. The class given is in vivo. Conditions: Abutilon theophrasti, post-emergence, read-out: ABUTH percent control.
Description: as §1, §2, §3, §4, §5, §6

Assay [5] has as its system morningglory (Ipomoea spp.) (IPOSS). Nature of the assay: post-emergent herbicidal test, morningglory. The class given is in vivo. Conditions: Ipomoea, post-emergence, read-out: IPOSS percent control.
Description: as §1, §2, §3, §4, §5, §6

Assay [6] concerns yellow nutsedge (Cyperus esculentus) (CYPES). Nature of the assay: post-emergent herbicidal test, yellow nutsedge. The class given is in vivo. The following applies: Cyperus, post-emergence, read-out: CYPES percent control.
Description: as §1, §2, §3, §4, §5, §6

Assay [7] concerns barnyard grass (Enchinochloa crusgalli) (ECHCG). As to the kind of experiment: post-emergent herbicidal test, barnyard grass. Conditions: Echinochloa crus-galli, post-emergence, read-out: ECHCG percent control. The class given is in vivo.
Description: as §1, §2, §3, §4, §5, §6

Assay [8] has as its system farnesyl pyrophosphate synthase in daffodil chromoplasts. As to the kind of experiment: inhibition of farnesyl pyrophosphate synthase in daffodil chromoplasts (14C-isopentenyl pyrophosphate incorporation). The class given is biochemical, Narcissus pseudonarcissus. The following applies: unit inferred, IC50 values in nM, read-out: IC50. On the procedure: The IC50 value may be determined as follows. Daffodil chromoplasts are diluted to a volume of 500 microliters in a buffer containing 0.5M sucrose, 3 mM MgCl2, 1 mM ethylenediaminetetraacetic acid, 20 mM N-tris[hydroxymethyl]methyl-2-aminoethanesulfonic acid, […] N-[2-hydroxyethyl]-piperazine-N'-[2-ethanesulfonic acid], 5 mM L-cysteine, 10 mM sodium fluoride, and 0.1% bovine serum albumin at pH 7.7. The inhibitor to be tested may be dissolved in water other suitable solvent and then added to the reaction mixture. The assay is started by the addition of ^14 C-labeled isopentenyl pyrophosphate (52 Ci/mol) to give a final concentration in the assay of about 3 micromolar. The mixture is incubated at 30° C. with gentle agitation for a period of about 30 min. The reaction may be stopped by the addition of 0.5 mL of saturated NaCl and 2 mL of n-butanol saturated with water. After thorough mixing, the turbid suspensions are centrifuged briefly to separate the layers, and 1 mL of the bright yellow upper butanol layer is added to 10 mL of a suitable scintillation fluid which gives a single phase. The butanol soluble radioactivity is then measured in a scintillation counter.
In addition, the problem of variable quenching differences among different experiments can be essentially eliminated by determining the incorporation of radioactivity relative to controls. Each set of experiments requires two control tubes identical to the test samples except that they contain no inhibitor. One of these is quenched immediately (TO sample) and one is quenched at the end of the normal incubation period (T100 sample).
For each concentration of inhibitor examined the % residual activity is determined from the formula [formula]
Tightly closed daffodil flowers (Narcissus pseudonarcissus) were allowed to open at room temperature. […] Coronae were placed in twice their weight of isolation buffer consisting of 67 mM potassium phosphate, 0.74M sucrose, 5 mM MgCl2, and 0.2% polyvinyl-pyrrolidone at pH 7.6 and were disrupted by 30 seconds of homogenization at high speed in a Waring-type blender. The mixture was filtered through several layers of cheesecloth and 2 layers of 100 micron nylon mesh, and the resulting filtrate was centrifuged at 1000×g for 10 minutes. The pellet was discarded and supernatant was centrifuged at 22,000×g for 20 minutes. […] This solution was centrifuged at 22,000×g for 20 minutes to give orange pellets which were suspended in a buffer of 100 mM tris(hydroxymethyl)aminomethane at pH 7.6 containing 5mM MgCl2 and 2 mM dithiothreitol (1 ml per 10 coronae). This solution was frozen in liquid nitrogen and then stored at -80° C.
Thawed daffodil chromoplasts (100-150 microliters) were diluted to a final volume of 500 microliters in a buffer containing 0.5M sucrose, 3 mM MgCl2, 1 mM ethylenediaminetetraacetic acid, 10 mM N-[2-hydroxyethyl]piperazine-N^1 -[2-ethanesulfonic acid], 5 mM L-cysteine, 10 mM sodium fluoride, and 0.1% bovine serum albumin at pH 7.7. The inhibitor to be tested was dissolved in water or other suitable solvent and was added to the reaction mixture. The assay was started by the addition of ^14 C-labeled isopentenyl pyrophosphate (52 Ci/mol) to give a final concentration in the assay of about 3 micromolar. The mixture was incubated at 30° C. with gentle agitation for a period of about 30 minutes. The reaction was stopped by the addition of 0.5 mL of saturated NaCl and 2 mL of n-butanol saturated with water. After thorough mixing, the turbid suspensions were centrifuged briefly to separate the layers, and 1 mL of the bright yellow upper butanol layer was added to 10 mL of a suitable scintillation fluid which gave a single phase. The butanol soluble radioactivity was then measured in a scintillation counter. Each set of experiments required two control tubes identical to the test samples except that they contain no inhibitor.

Where [9] appears, read: post-emergent, 1.0 kg/ha (*), 17-21 days after application.

Read-outs that look alike come from different tables or passages of the source.

For the compound `CONCC(P(=O)(O)O)P(=O)(O)O` [Compound 15], the pest or weed control at 1000 g/ha in assay [1], in assay [2], in assay [3], in assay [4], in assay [5] and in assay [6] was 0% each time. The pest or weed control at 1000 g/ha in assay [7] amounted to 0%. In addition, the IC50 in assay [8] (Table I) and in assay [8] (Table II) was 6310 nM throughout.
Take `C=CCCNCC(P(=O)(O)O)P(=O)(O)O` [Compound 16]: the pest or weed control at 1000 g/ha in assay [1] (setting [9]) came to 90%; in assay [2] (setting [9]) it was 100%; in assay [3] (setting [9]), 80%; in assay [4] (setting [9]), 10%; in assay [5] (setting [9]), 10%; in assay [6] (setting [9]), 20%. Further, the pest or weed control at 1000 g/ha in assay [7] (setting [9]) amounted to 100%. Also, the IC50 in assay [8] (Table I) and in assay [8] (Table II) was 316 nM in each case.
Take `CCCCCCNCC(P(=O)(O)O)P(=O)(O)O` [Compound 17]: the pest or weed control at 1000 g/ha in assay [1] (setting [9]) was 60%; in assay [2] (setting [9]), 50%; in assay [3] (setting [9]) it was 75%; in assay [4] (setting [9]) it was 0%; in assay [5] (setting [9]), 10%; in assay [6] (setting [9]) it was 0%. Also, the pest or weed control at 1000 g/ha in assay [7] (setting [9]) is 50%. The IC50 in assay [8] (Table I) and in assay [8] (Table II) was 316 nM in each case.
Regarding `C=CCNCC(P(=O)(O)O)P(=O)(O)O` [Compound 18], the pest or weed control at 1000 g/ha in assay [1] amounted to 98%; in assay [2], 100%; in assay [3], 100%; in assay [4], 30%; in assay [5], 70%; in assay [6], 50%. The pest or weed control at 1000 g/ha in assay [7] worked out at 98%. The IC50 in assay [8] (Table I) and in assay [8] (Table II) was 26 nM in each case.
For the compound `CCCN(CCC)CC(P(=O)(O)O)P(=O)(O)O` [Compound 19], the pest or weed control at 1000 g/ha in assay [1] (setting [9]) worked out at 98%; in assay [2] (setting [9]), 100%; in assay [3] (setting [9]), 100%; in assay [4] (setting [9]), 100%; in assay [5] (setting [9]), 60%; in assay [6] (setting [9]) it was 10%. Besides, the pest or weed control at 1000 g/ha in assay [7] (setting [9]) is 100%. The IC50 in assay [8] (Table I) and in assay [8] (Table II) was 32 nM in each case.
As for `CCNCC(P(=O)(O)O)P(=O)(O)O` [Compound 20], the pest or weed control at 1000 g/ha in assay [1] came to 50%; in assay [2], 10%; in assay [3], 40%; in assay [4], 0%; in assay [5], 0%; in assay [6], 15%. Further, the pest or weed control at 1000 g/ha in assay [7] stood at 60%. For the same compound, the 50% inhibitory concentration (IC50) in assay [8] (Table I) and in assay [8] (Table II) was 150 nM each time.
On to `CC1CCCN(CC(P(=O)(O)O)P(=O)(O)O)C1` (stereo not drawn) [Compound 21], for which the pest or weed control at 1000 g/ha in assay [1] (setting [9]) came to 50%; in assay [2] (setting [9]), 30%; in assay [3] (setting [9]), 50%; in assay [4] (setting [9]) it was 0%; in assay [5] (setting [9]), 10%; in assay [6] (setting [9]), 5%. Moreover, the pest or weed control at 1000 g/ha in assay [7] (setting [9]) stood at 30%. The IC50 in assay [8] (Table I) and in assay [8] (Table II) was 385 nM each time.
`CCOCCNCC(P(=O)(O)O)P(=O)(O)O` [Compound 22]: the pest or weed control at 1000 g/ha was determined as 20% in assay [1] (setting [9]); 40% in assay [2] (setting [9]); 0% in assay [3] (setting [9]); 5% in assay [4] (setting [9]); 5% in assay [5] (setting [9]); 0% in assay [6] (setting [9]). In addition, in assay [7] (setting [9]), the pest or weed control at 1000 g/ha is 15%. Moreover, the IC50 is 1160 nM in assay [8] (Table I) and 1660 nM in assay [8] (Table II).
Consider `CNCC(O)(P(=O)(O)O)P(=O)(O)O` [Compound 23], for which the pest or weed control at 4000 g/ha in assay [1], in assay [2], in assay [3], in assay [4], in assay [5] and in assay [6] was 0% throughout. In assay [7], the pest or weed control at 4000 g/ha amounted to 0%. Besides, the results for the IC50 in assay [8] (Table I) and in assay [8] (Table II) were 500000 nM and over 500000 nM, respectively.
